# Measurements published in ChEMBL document CHEMBL4665886, “Assessing different thiazolidine and thiazole based compounds as antileishmanial scaffolds” (Bioorg Med Chem Lett, 2020).
# How the values were obtained:
# [1] = tested on: Trypanosoma brucei brucei; experiment: Antitrypanosomal activity against bloodstream form of Trypanosoma brucei brucei 90-13 assessed as reduction in parasite growth; type: functional, organism-based
# [2] = tested on: BJ; experiment: Cytotoxicity against human BJ cells after 24 hrs by redox-sensitive dye based fluorescent assay; type: cell-based
# [3] = tested on: MRC5; experiment: Cytotoxicity against human MRC5 cells after 24 hrs by redox-sensitive dye based fluorescent assay; type: cell-based; conditions: MRC5, 24 h
# [4] = tested on: Trypanosoma brucei gambiense; experiment: Antitrypanosomal activity against bloodstream form of Trypanosoma brucei gambiense Feo assessed as reduction in parasite growth; type: functional, organism-based
# [5] = tested on: Leishmania major; experiment: Antileishmanial activity against Leishmania major FV1 assessed as reduction in parasite growth; type: functional, organism-based
# [6] = Therapeutic index, ratio of average IC50 for human MRC5 and BJ cells to IC50 for antileishmanial activity against Leishmania major; type: toxicity; conditions: MRC5 and BJ cells (average IC50) versus Leishmania major, read-out: TI
Compound,IC50 [1] [µM],IC50 [2] [µM],IC50 [3] [µM],IC50 [4] [µM],IC50 [5] [µM],selectivity ratio [6]
C=CCN1C(=O)C(CC(=O)c2ccc(F)cc2)S/C1=N\N=C\c1ccccc1 (stereo not given),> 50,21.5,20.1,> 50,47.5,0.45
CCC1S/C(=N\N=C\c2c(-c3ccc(Cl)cc3)[nH]c3ccccc23)NC1=O (stereo not given),–,7.45,8.8,–,22.7,0.36
O=C(CC1S/C(=N\N=C\c2c(-c3ccccc3)[nH]c3ccccc23)NC1=O)c1ccccc1 (stereo not given),–,> 50,> 50,–,9.14,> 5.47
CCOC(=O)c1sc(N/N=C/c2c(-c3ccc([N+](=O)[O-])cc3)[nH]c3ccccc23)nc1C,–,50,23.5,–,7.22,5.09
O=C1CS/C(=N\N=C\c2c(-c3ccc(Cl)cc3)[nH]c3ccccc23)N1,–,> 50,> 50,–,7.01,> 7.13
CCC1S/C(=N\N=C\c2c(-c3ccc(Br)cc3)[nH]c3ccccc23)NC1=O (stereo not given),–,7.45,5.91,–,18.8,0.36
O=C1N/C(=N/N=C/c2c(-c3ccc(Br)cc3)[nH]c3ccccc23)SC1CCO (stereo not given),–,29.2,15.9,–,12.8,1.75
C=CCSc1nn2c(/C=N/N=C3/NC(=O)C(CCOC(C)=O)S3)c(-c3ccccc3)nc2s1 (stereo not given),–,34.9,23.2,–,9.81,2.96
O=C(CC1S/C(=N\N=C\c2c(-c3ccccc3)[nH]c3ccccc23)NC1=O)c1ccc(F)cc1 (stereo not given),–,> 50,49.8,–,8.09,> 6.18
CC(=O)OCCC1S/C(=N\N=C\c2c(-c3ccccc3)[nH]c3ccccc23)NC1=O (stereo not given),–,37.1,42.8,–,3.51,11.3
CC1S/C(=N\N=C\c2c(-c3ccc(Br)cc3)[nH]c3ccccc23)NC1=O (stereo not given),–,> 50,> 50,–,18.6,> 2.7
C=CCSc1nn2c(C=O)c(-c3ccccc3)nc2s1,–,> 50,35.4,2.34,8.94,> 4.78
O=C1N/C(=N/N=C/c2c(-c3ccc(Cl)cc3)[nH]c3ccccc23)SC1CCO (stereo not given),–,22.4,13.2,–,15.7,1.13
CCC1S/C(=N\N=C\c2c(-c3ccc([N+](=O)[O-])cc3)[nH]c3ccccc23)NC1=O (stereo not given),–,29.8,25.2,–,14.7,1.87
CCC1S/C(=N\N=C\c2c(-c3ccccc3)[nH]c3ccccc23)NC1=O (stereo not given),–,> 50,> 50,–,1.12,> 44.6
O=C1CS/C(=N\N=C\c2c(-c3ccccc3)[nH]c3ccccc23)N1,–,> 50,> 50,–,1.73,> 29.1

Compound,IC50 [1] [µM],IC50 [2] [µM],IC50 [3] [µM],IC50 [4] [µM],IC50 [5] [µM],selectivity ratio [6]
CC1S/C(=N\N=C\c2c(-c3ccccc3)[nH]c3ccccc23)NC1=O (stereo not given),–,> 50,> 50,–,1.01,> 48.1
CCOC(=O)c1sc(N/N=C/c2c(-c3ccc(Cl)cc3)[nH]c3ccccc23)nc1C,–,> 50,25.2,–,12,> 2.49
CCOC(=O)C(Cc1ccccc1)N1C(=O)/C(=C/Nc2ncc(Cc3ccc(Cl)cc3Cl)s2)SC1=S (stereo not given),2.36,> 50,> 50,1.85,15.2,> 3.3
C[C@@H]1CC[C@@H]2[C@@H](C1)c1sc(=O)n(CC(=O)Nc3ccccc3)c1SC2(C)C,10.2,> 50,> 50,–,8.68,> 5.76
O=C(CC1S\C(=N/N=C\C=C\c2ccccc2)N(Cc2ccco2)C1=O)Nc1cccc(C(F)(F)F)c1 (stereo not given),> 50,15.6,12,> 50,18.4,0.75
O=C1CS/C(=N/N=C/c2c(-c3ccc(Cl)cc3)[nH]c3ccccc23)N1Cc1ccco1,–,8.07,10.8,7.31,12.6,0.75
C[C@@H]1CC[C@@H]2[C@@H](C1)c1sc(=O)n(CC(=O)Nc3ccc(S(N)(=O)=O)cc3)c1SC2(C)C,14.2,> 50,> 50,–,19.8,> 2.53
C[C@@H]1CC[C@@H]2[C@@H](C1)c1sc(=O)n(CC(=O)Nc3ccccc3C(F)(F)F)c1SC2(C)C,8.5,> 50,> 50,–,18,> 2.78
C=CCN1C(=O)C(CC(=O)c2ccc(F)cc2)S/C1=N\N=C1\CC2CCC1(C)C2(C)C (stereo not given),> 50,> 50,> 50,> 50,15.3,> 3.28
C[C@@H]1CC[C@@H]2[C@@H](C1)c1sc(=O)n(CCC#N)c1SC2(C)C,–,> 50,> 50,–,14.8,> 3.38
CCOC(=O)C(Cc1ccccc1)N1C(=O)/C(=C/Nc2nccs2)SC1=S (stereo not given),9.65,> 50,> 50,13.4,28.8,> 1.73
CCc1nn2c(C=O)c(-c3ccc([N+](=O)[O-])cc3)nc2s1,–,> 50,> 50,–,30.4,> 1.65
C[C@@H]1CC[C@@H]2[C@@H](C1)c1sc(=O)n(CC(=O)Nc3cccc(C(F)(F)F)c3)c1SC2(C)C,2.97,> 50,> 50,–,14.4,> 3.47
C[C@@H]1[C@H](O)[C@@H](C)/C=C/C=C/C=C/C=C/C=C/C=C/C=C/[C@H](O[C@@H]2O[C@H](C)[C@@H](O)[C@H](N)[C@@H]2O)C[C@@H]2O[C@](O)(C[C@@H](O)C[C@@H](O)[C@H](O)CC[C@@H](O)C[C@@H](O)CC(=O)O[C@H]1C)C[C@H](O)[C@H]2C(=O)O [AMPHOTERICIN B],–,> 50,> 50,–,0.5,> 100
CCCCCCCCCCCCCCCCOP(=O)([O-])OCC[N+](C)(C)C [MILTEFOSINE],–,> 50,> 50,–,8.18,> 6.11
